Data published in a compilation of properties of binary mixtures (doi:10.1515/zpch-2013-0494).

Assay: xn = mol fraction of the nth substance listed
Settings: 101 kPa

What does the source list for `CC(CC(C)(C)C)CP(=O)([O-])CC(C)CC(C)(C)C.CCCCCCCCCCCCCC[P+](CCCCCC)(CCCCCC)CCCCCC` + CCCCCCCCCCCC?
viscosity (298.15 K, x1 = 0.6647): 249 mPa·s; viscosity (298.15 K, x1 = 0.8071): 449 mPa·s; viscosity (298.15 K, x1 = 1): 1000 mPa·s; viscosity (303.15 K, x1 = 0.4684): 64.2 mPa·s; viscosity (303.15 K, x1 = 0.6647): 195 mPa·s; viscosity (303.15 K, x1 = 0.8071): 344 mPa·s; viscosity (308.15 K, x1 = 0.6647): 156 mPa·s; viscosity (308.15 K, x1 = 0.8071): 291 mPa·s; viscosity (313.15 K, x1 = 0.4684): 48 mPa·s; viscosity (313.15 K, x1 = 0.6647): 126 mPa·s; viscosity (313.15 K, x1 = 0.8071): 233 mPa·s; viscosity (313.15 K, x1 = 1): 439 mPa·s; viscosity (318.15 K, x1 = 0.4684): 40.9 mPa·s; viscosity (318.15 K, x1 = 0.8071): 180 mPa·s; viscosity (323.15 K, x1 = 0.4684): 35.2 mPa·s; viscosity (323.15 K, x1 = 0.6647): 85 mPa·s; viscosity (323.15 K, x1 = 0.8071): 144 mPa·s; viscosity (323.15 K, x1 = 1): 264 mPa·s; viscosity (328.15 K, x1 = 0.4684): 30.5 mPa·s; viscosity (328.15 K, x1 = 0.6647): 69.9 mPa·s; viscosity (328.15 K, x1 = 0.8071): 118 mPa·s; viscosity (333.15 K, x1 = 0.4684): 27.1 mPa·s; viscosity (333.15 K, x1 = 0.6647): 59.3 mPa·s; viscosity (333.15 K, x1 = 0.8071): 95.4 mPa·s; viscosity (333.15 K, x1 = 1): 170 mPa·s; viscosity (338.15 K, x1 = 0.4684): 24.2 mPa·s; viscosity (338.15 K, x1 = 0.8071): 81.1 mPa·s; viscosity (343.15 K, x1 = 0.4684): 21.2 mPa·s; viscosity (343.15 K, x1 = 0.8071): 65 mPa·s; viscosity (353.15 K, x1 = 1): 78 mPa·s

Which viscosity (298.15 K, x1 = 0.354) does the source give for `CCCCCCCCCCCCCC[P+](CCCC)(CCCC)CCCC.CCCCCCCCCCCCc1ccccc1S(=O)(=O)[O-]` + CCCCCCCCCCCC here?
Its viscosity is 312 mPa·s.

And the viscosity (298.15 K, x1 = 0.4844)?
The viscosity was 594 mPa·s.

What about the viscosity (298.15 K, x1 = 0.6789) of the same compound?
The viscosity was 2930 mPa·s.

What about the viscosity (303.15 K, x1 = 0.354) of the same compound?
Its viscosity is 225 mPa·s.

What about the viscosity (303.15 K, x1 = 0.4844) of the same compound?
Its viscosity is 441 mPa·s.

And the viscosity (303.15 K, x1 = 0.6789)?
The viscosity was 1580 mPa·s.

And the viscosity (308.15 K, x1 = 0.354)?
The viscosity was 167 mPa·s.

What about the viscosity (308.15 K, x1 = 0.4402) of the same compound?
The viscosity was 239 mPa·s.

And the viscosity (308.15 K, x1 = 0.6789)?
The viscosity was 1130 mPa·s.

And the viscosity (313.15 K, x1 = 0.6789)?
The viscosity was 812 mPa·s.

And the viscosity (313.15 K, x1 = 1)?
The viscosity was 1480 mPa·s.

And the viscosity (318.15 K, x1 = 0.354)?
Its viscosity is 95 mPa·s.

And the viscosity (318.15 K, x1 = 0.4402)?
Its viscosity is 135 mPa·s.

What about the viscosity (318.15 K, x1 = 0.4844) of the same compound?
The viscosity was 176 mPa·s.

And the viscosity (323.15 K, x1 = 0.354)?
The viscosity was 74.3 mPa·s.

And the viscosity (323.15 K, x1 = 0.4402)?
Its viscosity is 105 mPa·s.

And the viscosity (323.15 K, x1 = 0.4844)?
Its viscosity is 135 mPa·s.

And the viscosity (323.15 K, x1 = 0.6789)?
Its viscosity is 431 mPa·s.

What about the viscosity (323.15 K, x1 = 1) of the same compound?
The viscosity was 750 mPa·s.

And the viscosity (328.15 K, x1 = 0.4402)?
The viscosity was 81.7 mPa·s.

And the viscosity (328.15 K, x1 = 0.4844)?
The viscosity was 101 mPa·s.

What about the viscosity (333.15 K, x1 = 0.354) of the same compound?
The viscosity was 47.7 mPa·s.

And the viscosity (333.15 K, x1 = 0.4402)?
Its viscosity is 65.7 mPa·s.

And the viscosity (333.15 K, x1 = 0.4844)?
Its viscosity is 81.6 mPa·s.

And the viscosity (333.15 K, x1 = 0.6789)?
Its viscosity is 228 mPa·s.

And the viscosity (333.15 K, x1 = 1)?
Its viscosity is 409 mPa·s.

What about the viscosity (338.15 K, x1 = 0.4402) of the same compound?
The viscosity was 53.6 mPa·s.

What about the viscosity (338.15 K, x1 = 0.6789) of the same compound?
The viscosity was 169 mPa·s.

And the viscosity (343.15 K, x1 = 0.354)?
The viscosity was 31.5 mPa·s.

And the viscosity (343.15 K, x1 = 0.4402)?
Its viscosity is 44.3 mPa·s.

And the viscosity (343.15 K, x1 = 0.4844)?
The viscosity was 54.4 mPa·s.

And the viscosity (343.15 K, x1 = 1)?
Its viscosity is 238 mPa·s.

What about the viscosity (348.15 K, x1 = 0.354) of the same compound?
Its viscosity is 26.5 mPa·s.

And the viscosity (348.15 K, x1 = 0.4402)?
The viscosity was 36.8 mPa·s.

And the viscosity (348.15 K, x1 = 0.4844)?
The viscosity was 43.3 mPa·s.

And the viscosity (348.15 K, x1 = 0.6789)?
Its viscosity is 108 mPa·s.

What about the viscosity (353.15 K, x1 = 0.354) of the same compound?
Its viscosity is 22.6 mPa·s.

And the viscosity (353.15 K, x1 = 0.4402)?
The viscosity was 31.1 mPa·s.

What about the viscosity (353.15 K, x1 = 0.4844) of the same compound?
Its viscosity is 37.1 mPa·s.

What about the viscosity (353.15 K, x1 = 1) of the same compound?
Its viscosity is 148 mPa·s.

What does the source list for `CCCCCCCCCCCCCC[P+](CCCCCC)(CCCCCC)CCCCCC.N#C[N-]C#N` + CCCCCCCCCCCC?
viscosity (298.15 K, x1 = 0.5534): 160 mPa·s; viscosity (298.15 K, x1 = 0.736): 238 mPa·s; viscosity (298.15 K, x1 = 1): 440 mPa·s; viscosity (303.15 K, x1 = 0.5534): 116 mPa·s; viscosity (303.15 K, x1 = 0.736): 181 mPa·s; viscosity (308.15 K, x1 = 0.736): 141 mPa·s; viscosity (313.15 K, x1 = 0.5534): 71.6 mPa·s; viscosity (313.15 K, x1 = 1): 196 mPa·s; viscosity (318.15 K, x1 = 0.5534): 57.8 mPa·s; viscosity (318.15 K, x1 = 0.736): 89.1 mPa·s; viscosity (333.15 K, x1 = 0.5534): 32.8 mPa·s; viscosity (333.15 K, x1 = 0.736): 49.3 mPa·s; viscosity (333.15 K, x1 = 1): 82 mPa·s; viscosity (338.15 K, x1 = 0.5534): 28 mPa·s; viscosity (338.15 K, x1 = 0.736): 41.4 mPa·s; viscosity (343.15 K, x1 = 0.736): 35.5 mPa·s; viscosity (343.15 K, x1 = 1): 56 mPa·s; viscosity (348.15 K, x1 = 0.5534): 21.2 mPa·s; viscosity (348.15 K, x1 = 0.736): 30.3 mPa·s; viscosity (353.15 K, x1 = 0.5534): 19 mPa·s; viscosity (353.15 K, x1 = 0.736): 26.1 mPa·s
